Numbered stars: 1 amine (or outer) side, 2 acyl side, 3 side chain; on linkers, the order of the positions; unused ones are H or OH. Square brackets hold non-standard residues; d marks the D form. Peptide text beside a SMILES is read from it. Ala(1-cyclohexenyl) = N[C@@H](CC1=CCCCC1)C(=O)O; Butanoyl(2R-oxy,4-CN) = N#CCC[C@@H](O)C(=O)O; X22 = CCCC[C@@H](C)C[C@H](N[*:1])C(=O)[*:2]; Abu(4,4,4-F3) = N[C@@H](CC(F)(F)F)C(=O)O; NMeAla(cPent) = CN[C@@H](CC1CCCC1)C(=O)O; X12 = O=C([C@H](CC1=CCCC1)N[*:1])[*:2]; Ala(cPent) = N[C@@H](CC1CCCC1)C(=O)O; NMeCha = CN[C@@H](CC1CCCCC1)C(=O)O; NMeF = CN[C@@H](Cc1ccccc1)C(=O)O; aIle = CC[C@@H](C)[C@H](N)C(=O)O; NMeL = CN[C@@H](CC(C)C)C(=O)O; hLeu = CC(C)CC[C@H](N)C(=O)O; NMeA = CN[C@@H](C)C(=O)O; Nle = CCCC[C@H](N)C(=O)O; Nva = CCC[C@H](N)C(=O)O; dLac = C[C@@H](O)C(=O)O
Key:
Assay type in all cases: cell-based
[1] = test system: TNFα-FL/Gaussia Luciferase; test: Dox induced TNFα-FL-Gluc assay; conditions: Flp-In 293 T-REx cells, doxycycline, 24 hours; read-out: TNFa FL Gluc IC50
Description: Dox Induced TNFα-FL-Gluc Assay
(§1) Flp-In 293 T-REx™ cells were transfected with pcDNA™5/FRT/TO plasmid inserted with cDNA encoding Gaussia Luciferase fused to the 3′ end of cDNA encoding full length TNFα (amino acids 1-233). Transfected cells were selected for resistance to the selectable markers Hygromycin and Blasticidin to create a stable cell line that contained the TNFα-FL/Gaussia Luciferase cDNA insert whose expression was regulated under the T-REx™ system. The day before assay, cells were trypsinized and plated in 384-well tissue culture plates. The next day, compound dilutions in DMSO/media containing doxycycline were added to the wells and incubated at 37° C., 5% CO2.

[2] = test system: PD1-ss+10aa/Gaussia Luciferase; test: Dox induced PD1-ss-Gluc assay; conditions: Flp-In 293 T-REx cells, doxycycline, 24 hours; read-out: PD1ss Gluc IC50
Description: Dox Induced PD1-ss-Gluc Assay
as §1, with “PD1 signal sequence plus 10 amino” for “full length TNFα (amino”, “(N-[…]-C) (SEQ ID NO:3).” for “1-233).”, “PD1-ss+10aa/Gaussia” for “TNFα-FL/Gaussia”

[3] = test system: NCI-H929 multiple myeloma cell line; test: H929 assay (cell viability, Celltiter-Glo); conditions: Homo sapiens, NCI-H929; 48 hours, cell viability; read-out: H929 EC50
Description: The human multiple myeloma cell line NCI-H929 was cultured in Advanced RPMI 1640 media (Gibco@) supplemented with 6% fetal bovine serum, 2 mM Glutamine, and 1× Penicillin/Streptomycin. On the day of assay, cells were resuspended in RPMI 1640 media supplemented with 10% fetal bovine serum, 2 mM Glutamine, and 1× Penicillin/Streptmycin and plated in 384-well tissue culture plates and treated with compound dilutions in DMSO/media. Plates were incubated at 37° C., 5% CO2 for 48 hours. After 48 hours, Celltiter-Glo@ (Promega) was added to each well and luciferase signal was quantified using Tecan Infinite M1000 Pro for cell viability determination.

| IC50 [1] [nM] | IC50 [2] [nM] | EC50 [3] [nM] | Structure (SMILES) |
| --- | --- | --- | --- |
| 2800 | 1040 | 8800 | CC(C)C[C@@H]1NC(=O)[C@H](Cc2ccc3ccccc3c2)N(C)C(=O)[C@H](CC(C)C)NC(=O)[C@H](CC(C)C)N(C)C(=O)[C@H](CC(C)C)NC(=O)[C@@H](CCC#N)OC(=O)[C@H](C)N(C)C1=O [C-66] (HELM PEPTIDE1{L.[CN([C@@H](Cc1ccc2ccccc2c1)C(=O)[*:2])[*:1]].L.[meA].[N#CCC[C@@H](O[*:1])C(=O)[*:2]].L.[meL]}$PEPTIDE1,PEPTIDE1,1:R1-7:R2$$$V2.0) |
| 1120 | 335 | 4730 | CCCC[C@@H](C)C[C@@H]1NC(=O)[C@H](CC2CCCCC2)N(C)C(=O)[C@H](CC(C)C)NC(=O)[C@H](CC(C)C)N(C)C(=O)[C@H](CCC(C)C)NC(=O)[C@@H](CCC#N)OC(=O)[C@H](C)N(C)C1=O [C-60] (cyclo(L[NMeCha][X22][NMeA][Butanoyl(2R-oxy,4-CN)][hLeu][NMeL])) |
| 84 | 37 | 429 | CCCC[C@@H](C)C[C@@H]1NC(=O)[C@H](CC2CCCCC2)N(C)C(=O)[C@H](CC(C)C)NC(=O)[C@H](CC(C)C)N(C)C(=O)[C@H](C[C@H](C)CCCC)NC(=O)[C@@H](CCC#N)OC(=O)[C@H](C)N(C)C1=O [C-18] (cyclo(L[NMeCha][X22][NMeA][Butanoyl(2R-oxy,4-CN)][X22][NMeL])) |
| 779 | 460 | 4060 | CCCC[C@@H](C)C[C@@H]1NC(=O)[C@@H](C)OC(=O)[C@H](C)N(C)C(=O)[C@H](C(C)C)NC(=O)[C@H](Cc2ccccc2)N(C)C(=O)[C@H](CC(C)C)NC(=O)[C@H](CC(C)C)N(C)C1=O [C-02] (HELM PEPTIDE1{L.[meF].V.[meA].[C[C@@H](O[*:1])C(=O)[*:2]].[CCCC[C@@H](C)C[C@H](N[*:1])C(=O)[*:2]].[meL]}$PEPTIDE1,PEPTIDE1,1:R1-7:R2$$$V2.0) |
| 1680 | 432 | 5300 | CCCC[C@@H](C)C[C@@H]1NC(=O)[C@H](CC2CCCCC2)N(C)C(=O)[C@H](CC(C)C)NC(=O)[C@H](CC(C)C)N(C)C(=O)[C@H](C(C)C)NC(=O)[C@@H](CCC#N)OC(=O)[C@H](C)N(C)C1=O [C-20] (cyclo(L[NMeCha][X22][NMeA][Butanoyl(2R-oxy,4-CN)]V[NMeL])) |
| 376 | 297 | 2360 | CCCC[C@@H](C)C[C@@H]1NC(=O)[C@@H](CCC#N)OC(=O)[C@H](C)N(C)C(=O)[C@H](CC)NC(=O)[C@H](Cc2ccccc2)N(C)C(=O)[C@H](CC(C)C)NC(=O)[C@H](CC(C)C)N(C)C1=O [C-25] (HELM PEPTIDE1{[Abu].[meA].[N#CCC[C@@H](O[*:1])C(=O)[*:2]].[CCCC[C@@H](C)C[C@H](N[*:1])C(=O)[*:2]].[meL].L.[meF]}$PEPTIDE1,PEPTIDE1,1:R1-7:R2$$$V2.0) |
| 104 | 86 | 1260 | CCCC[C@@H](C)C[C@@H]1NC(=O)[C@H](Cc2ccccc2)N(C)C(=O)[C@H](CCC)NC(=O)[C@H](CC(C)C)N(C)C(=O)[C@H](C[C@H](C)CCCC)NC(=O)[C@@H](C)OC(=O)[C@H](C)N(C)C1=O [C-04] (cyclo([NMeA][dLac][X22][NMeL][Nva][NMeF][X22])) |
| 1390 | 374 | 5150 | CCCC[C@@H](C)C[C@@H]1NC(=O)[C@H](CC2CCCCC2)N(C)C(=O)[C@H](CC(C)C)NC(=O)[C@H](CC(C)C)N(C)C(=O)[C@H](CCC)NC(=O)[C@@H](CCC#N)OC(=O)[C@H](C)N(C)C1=O [C-19] (cyclo(L[NMeCha][X22][NMeA][Butanoyl(2R-oxy,4-CN)][Nva][NMeL])) |
| 1130 | 367 | 6960 | CCCC[C@@H](C)C[C@@H]1NC(=O)[C@H](CC2CCCCC2)N(C)C(=O)[C@H](CC(C)C)NC(=O)[C@H](CC(C)C)N(C)C(=O)[C@H](CC2CCCC2)NC(=O)[C@@H](CCC#N)OC(=O)[C@H](C)N(C)C1=O [C-47] (cyclo([Ala(cPent)][NMeL]L[NMeCha][X22][NMeA][Butanoyl(2R-oxy,4-CN)])) |
| 1560 | 495 | 5860 | CCCC[C@@H](C)C[C@@H]1NC(=O)[C@H](CC2CCCCC2)N(C)C(=O)[C@H](CC(C)C)NC(=O)[C@H](CC(C)C)N(C)C(=O)[C@H](CCCC)NC(=O)[C@@H](CCC#N)OC(=O)[C@H](C)N(C)C1=O [C-53] (cyclo(L[NMeCha][X22][NMeA][Butanoyl(2R-oxy,4-CN)][Nle][NMeL])) |
| 1260 | 656 | 5550 | CCCC[C@@H](C)C[C@@H]1NC(=O)[C@H](Cc2ccccc2)N(C)C(=O)[C@H](CC(C)C)NC(=O)[C@H](CC(C)C)N(C)C(=O)[C@H](C(C)C)NC(=O)[C@@H](C)OC(=O)[C@H](C)N(C)C1=O [C-07] (HELM PEPTIDE1{L.[meF].[CCCC[C@@H](C)C[C@H](N[*:1])C(=O)[*:2]].[meA].[C[C@@H](O[*:1])C(=O)[*:2]].V.[meL]}$PEPTIDE1,PEPTIDE1,1:R1-7:R2$$$V2.0) |
| 464 | 119 | 1870 | CCCC[C@@H](C)C[C@@H]1NC(=O)[C@H](CC2CCCCC2)N(C)C(=O)[C@H](CC(C)C)NC(=O)[C@H](CC(C)C)N(C)C(=O)[C@H](CC2=CCCC2)NC(=O)[C@@H](CCC#N)OC(=O)[C@H](C)N(C)C1=O [C-55] (cyclo(L[NMeCha][X22][NMeA][Butanoyl(2R-oxy,4-CN)][X12][NMeL])) |
| 236 | 115 | 950 | CCCC[C@@H](C)C[C@@H]1NC(=O)[C@H](CC2CCCC2)N(C)C(=O)[C@H](CC(C)C)NC(=O)[C@H](CC(C)C)N(C)C(=O)[C@H](C[C@H](C)CCCC)NC(=O)[C@@H](CCC#N)OC(=O)[C@H](C)N(C)C1=O [C-22] (cyclo(L[NMeAla(cPent)][X22][NMeA][Butanoyl(2R-oxy,4-CN)][X22][NMeL])) |
| 158 | 114 | 1820 | CCCC[C@@H](C)C[C@@H]1NC(=O)[C@H](Cc2ccccc2)N(C)C(=O)[C@H](CC(C)C)NC(=O)[C@H](CC(C)C)N(C)C(=O)[C@H](CC(F)(F)F)NC(=O)[C@@H](CCC#N)OC(=O)[C@H](C)N(C)C1=O [C-09] (cyclo(L[NMeF][X22][NMeA][Butanoyl(2R-oxy,4-CN)][Abu(4,4,4-F3)][NMeL])) |
| 716 | 212 | 3400 | CCCC[C@@H](C)C[C@@H]1NC(=O)[C@H](CC2CCCCC2)N(C)C(=O)[C@H](CC(C)C)NC(=O)[C@H](CC(C)C)N(C)C(=O)[C@H](CC(C)C)NC(=O)[C@@H](CCC#N)OC(=O)[C@H](C)N(C)C1=O [C-21] (cyclo(L[NMeCha][X22][NMeA][Butanoyl(2R-oxy,4-CN)]L[NMeL])) |
| 238 | 94 | 1650 | CCCC[C@@H](C)C[C@@H]1NC(=O)[C@H](CC2CCCCC2)N(C)C(=O)[C@H](CC(C)C)NC(=O)[C@H](CC(C)C)N(C)C(=O)[C@H](CC2=CCCCC2)NC(=O)[C@@H](CCC#N)OC(=O)[C@H](C)N(C)C1=O [C-56] (cyclo(L[NMeCha][X22][NMeA][Butanoyl(2R-oxy,4-CN)][Ala(1-cyclohexenyl)][NMeL])) |
| 88 | 66 | 953 | CCCC[C@@H](C)C[C@@H]1NC(=O)[C@H](CC2=CCCC2)N(C)C(=O)[C@H](CC(C)C)NC(=O)[C@H](CC(C)C)N(C)C(=O)[C@H](C[C@H](C)CCCC)NC(=O)[C@@H](CCC#N)OC(=O)[C@H](C)N(C)C1=O [C-23] |

| Structure (SMILES) | IC50 [1] [nM] | IC50 [2] [nM] | EC50 [3] [nM] |
| --- | --- | --- | --- |
| CCCC[C@@H](C)C[C@@H]1NC(=O)[C@H](Cc2ccccc2)N(C)C(=O)[C@H](CC(C)C)NC(=O)[C@H](CC(C)C)N(C)C(=O)[C@H](CC(F)(F)F)NC(=O)[C@@H](C)OC(=O)[C@H](C)N(C)C1=O [C-03] (cyclo(L[NMeF][X22][NMeA][dLac][Abu(4,4,4-F3)][NMeL])) | 525 | 385 | 5070 |
| CCCC[C@@H](C)C[C@@H]1NC(=O)[C@H](CC2CCCCC2)N(C)C(=O)[C@H](CC(C)C)NC(=O)[C@H](CC(C)C)N(C)C(=O)[C@H]([C@H](C)CC)NC(=O)[C@@H](CCC#N)OC(=O)[C@H](C)N(C)C1=O [C-62] (cyclo(L[NMeCha][X22][NMeA][Butanoyl(2R-oxy,4-CN)][aIle][NMeL])) | 1660 | 277 | 4220 |
